Experimental data reported in PubChem BioAssay AID179 (DTP/NCI, 2004).
Several values for one entry are separate records, joined by “and”; a condition that tells them apart may be missing. Equal entries are not always repeated. Activity calls are given as the source filed them.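 The calls were made as follows: active = compounds giving half or more protection of infected cells from virus-caused growth loss, again on retest; inactive = the rest.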

Test system: CEM cells HIV-1 protection, formazan growth assay
Assay: NCI AIDS Antiviral Assay
Settings: for IC50: measured here: growth of uninfected CEM cells
Outline: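 Protection of CEM cells against HIV-1 measured as cell growth via soluble formazan read-out, with five concentrations tested on both infected and uninfected cells; failure to protect may reflect toxicity.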

Structure (SMILES)	EC50	IC50	outcome
O=[n+]1cnn([O-])c2ccccc21	> 200 µM	3.63 µM	
CCOC(=O)c1cc2c(ccc3cc(C(=O)OCC)[nH]c32)[nH]1	> 200 µM	> 200 µM	
CC1(C)CCCCCC(C)(CCCO)C1=O (configuration not stated)	> 200 µM	> 200 µM	
O=C(Nc1ccc(-c2ccco2)oc1=O)c1ccccc1	> 200 µM	> 200 µM	
CC(=O)OC1COC(N2c3ccccc3[C@@H]3CCc4c([nH]c5ccccc45)[C@@H]32)C(OC(C)=O)C1OC(C)=O (mixture of isomers)	> 155 µM	19.5 µM	
Cn1c(=O)c2[nH]cnc2n(CC(=O)O)c1=O	> 1120 µM	> 1120 µM	
CC(=O)OCC1OC(n2c3c(cc(C#N)c2=S)CCCCCC3)C(OC(C)=O)C(OC(C)=O)C1OC(C)=O (configuration not stated)	> 200 µM	52.5 µM	
COc1cc2c(c3c1[C@@H](O)[C@H](C)[C@@H](C)O3)C=CC(C)(C)O2	> 200 µM	79.4 µM	
NC(=O)C(=O)N/N=C/c1ccc([N+](=O)[O-])o1	> 200 µM	8.32 µM	
CC1CCCC(C)N1Cc1cccnc1 (configuration not stated)			inactive
CC(=O)N1C(NN(C)C)CCN1c1ccccc1 (configuration not stated)	> 200 µM	32.4 µM	
[O-]c1on[n+]2c1c(Nc1ccc(Cl)cc1)nc1ccccc12	> 115 µM	> 115 µM	
NC(=O)c1ncn(CC2(CO)CCC2)c1N	> 200 µM	> 200 µM	
CON(C)c1nc(N(C)OC)nc(N(C)OC)n1	> 200 µM	> 200 µM	
CCOC(=O)/C(C#N)=C/c1ccc([N+](=O)[O-])cc1	> 21.4 µM	> 21.4 µM	
O=C1Nc2ccc([N+](=O)[O-])c3c(C(=O)O)ccc1c23	> 200 µM	141 µM	
NC(Cc1ccc(S(=O)(=O)O)cc1)C(=O)NC(CCCCNC(=O)NCCCCC(NC(=O)C(N)Cc1ccc(S(=O)(=O)O)cc1)C(=O)NC(Cc1ccc(S(=O)(=O)O)cc1)C(=O)O)C(=O)NC(Cc1ccc(S(=O)(=O)O)cc1)C(=O)O (configuration not stated)	> 100 µM	> 100 µM	
COC(=O)c1cc2ccc(O)c(O)c2cn1	> 195 µM	2.24 µM and 2.34 µM	
C=CCNC1=C2C[C@@H](C)C[C@@H](OC)[C@@H](OC(=O)CCCN)[C@H](C)/C=C(\C)[C@@H](OC(N)=O)[C@H](OC)/C=C\C=C(/C)C(=O)NC(=CC1=O)C2=O	> 200 µM	5.5 µM	
COC(=O)CSC(=S)Nc1nnc(NC(=S)SCOC(C)=O)n1C(=S)SCC(=O)OC	> 200 µM	> 200 µM	
Cc1cccc(C=NC23CC4CC(CC(C4)C2)C3)c1	> 102 µM	> 102 µM	
COc1ccc(N2C(=O)/C(=C/c3ccc(N(CCC#N)CCC#N)cc3)N=C2c2ccccc2)cc1	> 200 µM	> 200 µM	
CN1CCCC1CCNc1nc(C(Cl)(Cl)Cl)nc2cc(Cl)ccc12 (configuration not stated)	> 24.5 µM	12.9 µM	

Structure (SMILES)	EC50	IC50	outcome
CCOC(=O)/C(=C\c1ccc([N+](=O)[O-])cc1)[Se]c1ccccc1	> 69.2 µM	26.9 µM	
CCOC(=O)NC(NCC(O)c1ccccc1)(C(F)(F)F)C(F)(F)F (configuration not stated)	> 200 µM	174 µM	
NC(=O)C(NCc1ccccc1)c1ccccc1 (configuration not stated)	> 200 µM	> 200 µM	
CC1=NNC(=O)C1C1CC(c2c[nH]c3ccccc23)=NN(c2ccccc2)C1=O (configuration not stated)	> 200 µM	33.9 µM	
CCC(C)[C@H](NC(=O)c1ccccc1S)C(=O)O (some centres not stated)	8.51 µM	110 µM	
COc1cc(/C=C2/CCCc3ccccc3C2=O)cc(OC)c1OC	> 200 µM	11.7 µM	
COC(=O)c1cc(=O)c2c(ccc3oc(=O)ccc32)[nH]1	> 200 µM	170 µM	
CCOC(=O)C(=Cc1cccc(F)c1)C(=O)OCC	> 355 µM	22.4 µM	
CC1=Nc2ccccc2N=C(c2c(O)c3c(ccc4ccccc43)oc2=O)C1	> 200 µM	20 µM	
O=C1OCCOC(=O)c2cccc(n2)C(=O)OCCOC(=O)c2cccc1n2	22.9 µM	25.7 µM	
N#CC1=C(N)N(/N=C/c2ccccc2)C(c2ccccc2)C1(C#N)C#N (configuration not stated)	> 200 µM	3.89 µM	
CCOC(=O)c1sc2c(c1OC(=O)c1ccccc1)c(=O)n(-c1ccccc1)c(=S)n2-c1ccccc1	> 200 µM	132 µM	
COC(=O)[C@@H]1CCCCC[C@H]2C(CO)=C(C)C(=O)C12 (some centres not stated)	> 200 µM	> 200 µM	
CCCCCCCCCCCCCCCCNC(=S)N/C=C(/C#N)C(=O)OC			inactive
COc1ccc(NC(=O)CC(=O)n2nc(-c3ccccc3)c(N=Nc3ccccc3C)c2-c2ccccc2)cc1	> 13.5 µM	> 13.5 µM	
O=C(CC1NCCS1)OCc1ccc(Br)cc1 (configuration not stated)	19.1 µM	81.3 µM	
Cc1cn(C2CC(N=[N+]=[N-])C(COC(=O)CCOCCCCCCCCCl)O2)c(=O)[nH]c1=O (configuration not stated)	0.00692 µM	20 µM	
c1ccc2c(c1)OCCOCCOc1ccccc1OCCO2	> 295 µM	74.1 µM	
COc1cc2c(cc1OC)C1CNC(C2)c2cc(OC)c(OC)cc21 (configuration not stated)	> 200 µM	> 200 µM	
Cc1nn2c(=O)[nH]cnc2c1Cl	> 229 µM	> 229 µM	
COc1ccc(-c2ccccc2)cc1S	> 200 µM	> 200 µM	
Cc1noc(C)c1N=Nc1ccc2nonc2c1N	> 200 µM	> 200 µM	
C/C(=C1/CCCC2(N=NCC2c2ccccc2)C1=O)c1ccccc1 (configuration not stated)	> 8.32 µM	> 8.32 µM	

Structure (SMILES)	EC50	IC50	outcome
COc1ccc(CC2NC(=O)C3CCCN3C2=O)cc1 (configuration not stated)	> 200 µM	> 200 µM	
CC(CO)(CO)N1C(=O)c2cccc3cc([N+](=O)[O-])cc(c23)C1=O	> 200 µM	> 200 µM	
O=C1N[C@H]2[C@H](O)[C@H](O)[C@@H](O)[C@H](O)[C@@H]2c2cc3c(c(O)c21)OCO3			inactive
Cc1ccc(C2=Nc3cc(C)c(Cl)cc3S(=O)(=O)NN2)cc1	34.7 µM	87.1 µM	
O=C1Cc2cn[nH]c2-c2ccccc2N1			inactive
C/C(=N\NC(=O)CC(=O)N(C(=O)c1ccccc1Cl)c1ccc(C)cc1)c1ccc(Cl)cc1	> 14.1 µM	> 14.1 µM	
COc1ccc2cc1Oc1ccc(cc1)C[C@H]1NCCc3cc(OC)c(cc31)Oc1c(O)c(OC)cc3c1CCN(C)C3C2 (some centres not stated)			inactive
O=C(NC1=NC2C=CC([N+](=O)[O-])=CC2S1)C(=O)Nn1c(=S)[nH]c2ccccc2c1=O (configuration not stated)	> 81.3 µM	74.1 µM	
O=c1c2sc3ccccc3sc=2c(=O)c2c(Cl)c(Cl)c(Cl)c(Cl)c12	> 126 µM	58.9 µM	
CCC1(c2c(F)c(F)c(N)c(F)c2F)CCC(=O)NC1=O (configuration not stated)			inactive
Cc1ccc(-n2cc(-c3ccc(Cl)cc3)c3c(NN)ncnc32)cc1	> 200 µM	3.72 µM	
CO/C=N/c1cn2c(n1)CN=C2	> 200 µM	> 200 µM	
CC(CC=O)Nc1nn2c(=O)c3ccccc3nc2s1 (configuration not stated)	> 200 µM	132 µM	
CC(=O)O[C@H]1CCC2[C@@H]3CCC4C(=O)c5[nH]ncc5C[C@]4(C)C3CC[C@@]21C (some centres not stated)	> 87.1 µM	> 87.1 µM	
BrC(=C(c1ccc(OC2CCCCO2)cc1)c1ccc(OC2CCCCO2)cc1)c1ccccc1 (configuration not stated)	70.8 µM	> 200 µM	
Nc1ccc2ncc(Nc3ccc(Cl)c(Cl)c3)nc2c1	> 8.91 µM	> 8.91 µM	
COc1ccc(OC)c(C(=O)/C=C\C(=O)O)c1	> 219 µM	24.5 µM	
c1ccc(-c2cc(N3CCOCC3)c3ccccc3n2)cc1			inactive
CCOc1ccc(/C(Cl)=C(\C=O)c2ccc(OC)c(OC)c2)cc1OCC	> 25.7 µM	14.1 µM	
CCOC(=O)/C=C/n1cc(C)c(=O)[nH]c1=O	> 224 µM	117 µM	
O=c1c2ccccc2c(=O)n2n1-c1cccc(c1)CSSCc1cccc-2c1			inactive
CC(C)=CC1CC(n2cc(C)c(=O)[nH]c2=O)ON1CCO[Si](C)(C)C(C)(C)C (configuration not stated)			inactive
O=C1C(=O)N(C(=O)c2ccc(Cl)c(Cl)c2)c2ccc(Cl)cc21			inactive

Structure (SMILES)	EC50	IC50	outcome
O=C(Nc1ccccc1)N1CCN(C(=O)Nc2ccccc2)C1=S	195 µM	> 200 µM	
CN1C(=O)C2(C=CC(O)CC2)c2ccccc21 (configuration not stated)	> 200 µM	> 200 µM	
Cc1cc(C)nc(NC(P(=O)(O)O)P(=O)(O)O)n1	> 200 µM	> 200 µM	
Cc1c2ccccc2nc(CS(C)=O)[n+]1[O-] (configuration not stated)	> 200 µM	> 200 µM	
CC1=NN(C(=O)CC(=O)N(C(=O)c2ccccc2Cl)c2ccc(C)cc2)C(=O)C1N=Nc1ccc([N+](=O)[O-])cc1 (configuration not stated)	> 12.9 µM	> 12.9 µM	
COc1ccc(C(O)C(=O)c2nc3ccc([N+](=O)[O-])cc3[nH]c2=O)cc1 (configuration not stated)	107 µM	129 µM	
Cn1c2c(c3ccccc31)CCN(CCCCN1CCc3c(n(C)c4ccccc34)C1=O)C2	> 40.7 µM	> 40.7 µM	
CNC(=O)CCCC=C(c1cc(Cl)c(OC)c(C(=O)NC)c1)c1cc(Cl)c(OC)c(C(=O)NC)c1	> 200 µM	38.9 µM	
CCCCCCCCCCCC1=C(NCCS)C(=O)C=C(NCCS)C1=O	> 1.26 µM	> 1.26 µM	
COc1c(OC)c(OC)c2c(=O)cc(-c3ccc4c(c3)OCO4)oc2c1OC	> 200 µM	> 200 µM	
NCCSSC/C=C\CSSCCN			inactive
CN(C)c1ccc(/C=C(\C#N)c2ccc(Cl)c(Cl)c2)cc1	> 100 µM	3.63 µM	
COc1cc2c(c(OC)c1OC)-c1ccc(OC)c(=O)cc1C(NC(=O)CCCCCNc1ccc(N=[N+]=[N-])cc1[N+](=O)[O-])CC2 (configuration not stated)	> 200 µM	0.0631 µM	
N=c1ccc2nc(N)nn(O)c-2c1	> 200 µM	> 200 µM	
CCC(C)C(=O)c1c(O)c(CC2OC2(C)C)c(O)c2c(C(O)CC)cc(=O)oc12 (configuration not stated)	> 200 µM	5.62 µM	
CC(C)C1SCc2nc3ccccc3n21 (configuration not stated)	> 200 µM	95.5 µM	
O=c1[nH]cnc2c1ncn2C1CCC2(CO)CC12 (configuration not stated)	> 50.1 µM	> 50.1 µM	
COC(=O)C1(Cc2ccc(C)cc2)Cc2c(C)cccc2C1=O (configuration not stated)	> 200 µM	8.91 µM	
CS(=O)(=O)OCCCNCCCOS(C)(=O)=O	> 759 µM	562 µM	
CC(C)(C)N1CC1CNC(=O)C(=O)NCC1CN1C(C)(C)C (configuration not stated)	> 200 µM	1.35 µM	
